Assay results published in US7078400B2, “20-HETE synthase inhibitor” (Taisho Pharmaceutical Co., Ltd., priority 1999, dated 2006).
pIC50: −log10 of the molar value.

Assays:
[1] = tested on: 20-HETE synthase originated from rat kidney microsome; assay: Inhibitory effect of 20-HETE synthase originated from rat kidney microsome; assay type: biochemical; details: for Inhibition rate (1 μM): 20-HETE production without compound set to 100%
Procedure, shortened: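 Kidney microsomes from 6-week male spontaneously hypertensive rats were used with tritium-arachidonic acid and NADPH. 20-HETE was quantified by radio-HPLC on a C18 column.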

[2] = 1 μM of the subject compound added, rat kidney microsome
[3] = 1 μM of subject compound, rat kidney microsome
[4] = concentration at which 20-HETE production was inhibited to 50%, rat kidney microsome
[5] = concentration at which production of 20-HETE was inhibited to 50%, rat kidney microsome
[6] = concentration at which production of 20-HETE was inhibited to 50%

Row | Structure (SMILES) | melting point [°C] | Inhibition rate (1 μM) [1, 2] | Inhibition rate (1 μM) [1, 3] | pIC50 [1, 4] | Inhibition rate (1 μM) ([1]; 1 μM of the subject compound) | pIC50 [1, 5] | pIC50 [1, 6]
1 | CC(C)c1cccc(N/C=N/O)c1 [Comp. 29] | 93 to 94.5 | 93.6 | – | – | – | – | –
2 | OCCc1ccc(N/C=N/O)cc1 [Comp. 207] | 138 to 140 | – | 90.7 | 7.94 | – | – | –
3 | O/N=C/Nc1ccc(SCc2ccccc2)cc1 [Comp. 441, N-[4-(benzylthio)phenyl]-N′-hydroxyformamidine] | 166 | – | – | – | 94.2 | – | –
4 | O/N=C/Nc1ccc(OCCCc2ccncc2)cc1 [Comp. 366] | 188 to 189 | – | 105 | 8.92 | – | – | –
5 | Cc1ccc(N/C=N/O)c(Cl)c1 [Comp. 11] | 151 to 152.5 | 92.7 | – | – | – | 6.53 | –
6 | COCCOCCOc1ccc(N/C=N/O)cc1 [Comp. 347] | 80.5 to 81.5 | – | 105 | 8.43 | – | – | –
7 | COc1ccccc1COc1ccc(N/C=N/O)cc1 [Comp. 382] | 153 to 153.5 | – | 122.5 | 8.51 | – | – | –
8 | O/N=C/Nc1ccc(SCc2ccco2)cc1 [Comp. 448] | 125 to 126.5 | – | – | – | 109.8 | – | 8.72
9 | OCCCSc1ccc(N/C=N/O)cc1 [Comp. 459] | 108 to 108.5 | – | – | – | 119.0 | – | 8.62
10 | CCCCCCCc1ccc(N/C=N/O)cc1 [Comp. 28] | 119 to 120.5 | 92.5 | – | – | – | 8.33 | –
11 | CC(=O)OCCCCCOc1ccc(N/C=N/O)cc1 [Comp. 426] | 101.5 to 104 | – | – | – | – | – | 8.29
12 | CN1CCCCC1COc1ccc(N/C=N/O)cc1 (centres unmarked) [Comp. 417] | 146.5 to 148 | – | – | – | 102.8 | – | 7.05
13 | C#CCOc1ccc(N/C=N/O)cc1 [Comp. 227] | 139 to 141 | – | 117.8 | 7.40 | – | – | –
14 | O=C([O-])CCCCOc1ccc(N/C=N/O)cc1.[Na+] [Comp. 434] | > 300 | – | – | – | – | – | 8.49
15 | CCCCCc1ccc(N/C=N/O)cc1 [Comp. 7] | 122.5 to 124 | 110.5 | – | – | – | 7.92 | –
16 | O/N=C/Nc1ccc(OCC2COCO2)cc1 (centres unmarked) [Comp. 340] | 157.5 to 158 | – | 97.4 | 8.52 | – | – | –
17 | O/N=C/Nc1ccc(Br)c2ccccc12 [Comp. 235] | 167.5 to 168 | – | 77.8 | 5.23 | – | – | –
18 | Cc1cccc(COc2ccc(N/C=N/O)cc2)n1 [Comp. 369] | 146.5 to 149 | – | 105 | 8.51 | – | – | –
19 | O/N=C/Nc1ccc(N2CCCCC2)cc1 [Comp. 294] | 162 to 162.5 | – | 103.2 | 8.31 | – | – | –
20 | O/N=C/Nc1ccc(OCCN2CCOCC2)cc1 [Comp. 355] | 141 to 142 | – | 107 | 8.23 | – | – | –
21 | O/N=C/Nc1ccc(Br)cc1Br [Comp. 34] | 163 to 163.5 | 90.6 | – | – | – | 7.10 | –
22 | CCCCCOc1ccc(N/C=N/O)cc1 [Comp. 319] | 126 to 137.5 | – | 99.9 | 8.42 | – | – | –
23 | O/N=C/Nc1ccc(OCc2cc(F)ccc2F)cc1 [Comp. 384] | 167 to 167.5 | – | 117.3 | 8.55 | – | – | –
24 | CC(C)(C)CCOc1ccc(N/C=N/O)cc1 [Comp. 325] | 123 to 125 | – | 106 | 8.59 | – | – | –
25 | O/N=C/Nc1ccc(OCCC2CCCCC2)cc1 [Comp. 341] | 129.5 to 133 | – | 104 | 8.92 | – | – | –
26 | OCCSc1ccc(N/C=N/O)cc1 [Comp. 444] | 121 | – | – | – | 100.7 | – | 7.92

Row | Structure (SMILES) | melting point [°C] | Inhibition rate (1 μM) [1, 2] | Inhibition rate (1 μM) [1, 3] | pIC50 [1, 4] | Inhibition rate (1 μM) ([1]; 1 μM of the subject compound) | pIC50 [1, 5] | pIC50 [1, 6]
27 | CC1(C)COC(CCOc2ccc(N/C=N/O)cc2)OC1 [Comp. 364] | 136.5 to 137.5 | – | 104 | 8.70 | – | – | –
28 | O/N=C/Nc1ccc(OCC2CC2)cc1 [Comp. 356] | 141 to 142.5 | – | 102 | 8.59 | – | – | –
29 | CCOC(=O)CCCCOc1ccc(N/C=N/O)cc1 [Comp. 433] | 125 to 127 | – | – | – | – | – | 8.82
30 | O=C1CCCN1CCOc1ccc(N/C=N/O)cc1 [Comp. 407] | 127.5 to 129.5 | – | – | – | 94.3 | – | 8.31
31 | CCOC(=O)CCCCCOc1ccc(N/C=N/O)cc1 [Comp. 424] | 102 to 103.5 | – | – | – | – | – | 8.82
32 | O/N=C/Nc1ccc(OCCCc2ccccn2)cc1 [Comp. 358] | 138 to 139.5 | – | 103 | 8.51 | – | – | –
33 | CN(C)CC(C)(C)COc1ccc(N/C=N/O)cc1 [Comp. 403] | 101.5 to 102 | – | – | – | 118.3 | – | 7.55
34 | C/C=C/COc1ccc(N/C=N/O)cc1 [Comp. 336] | 142.5 to 146 | – | 117.6 | 8.49 | – | – | –
35 | O/N=C/Nc1ccc(-n2ccc(C(F)(F)F)n2)cc1 [Comp. 273] | 165 to 167 | – | 89.2 | 7.01 | – | – | –
36 | CCCOC(=O)c1ccc(N/C=N/O)cc1 [Comp. 44] | 145 to 146 | – | – | – | – | 8.09 | –
37 | COc1ccc(COc2ccc(N/C=N/O)cc2)cc1 [Comp. 389] | 167 to 167.5 | – | 105.5 | 8.80 | – | – | –
38 | CCSCCOc1ccc(N/C=N/O)cc1 [Comp. 361] | 104 to 106 | – | 106 | 8.68 | – | – | –
39 | CN(C)CCCCOc1ccc(N/C=N/O)cc1 [Comp. 401] | 100 to 102 | – | – | – | 117.4 | – | 7.42
40 | COc1ccc(C)cc1N/C=N/O [Comp. 17] | 136.5 to 139 | 85.3 | – | – | – | – | –
41 | CC/C=C/COc1ccc(N/C=N/O)cc1 [Comp. 338] | 100 to 102 | – | 119.8 | 9.05 | – | – | –
42 | O/N=C/Nc1ccc(OCC2CCCCO2)cc1 (centres unmarked) [Comp. 421] | 153 to 154.5 | – | – | – | 113.3 | – | 8.41
43 | O/N=C/Nc1ccc(OCCc2ccsc2)cc1 [Comp. 423] | 132 to 134.5 | – | – | – | 118.4 | – | 8.66
44 | O/N=C/Nc1ccccc1-c1ccccc1 [Comp. 234] | 111 to 113 | – | 74.1 | – | – | – | –
45 | Cc1ccc(Oc2ccc(N/C=N/O)cc2)cc1 [Comp. 130] | 155 to 156 | 116.5 | – | – | – | 8.16 | –
46 | O/N=C/Nc1ccc(OCCSc2ccccn2)cc1 [Comp. 359] | 132.5 to 134.5 | – | 102 | 8.85 | – | – | –
47 | C=CCCCOc1ccc(N/C=N/O)cc1 [Comp. 329] | 127 to 128 | – | 121.1 | 9.15 | – | – | –
48 | O/N=C/Nc1ccc(OCc2ccoc2)cc1 [Comp. 368] | 165.5 to 166 | – | 96 | 8.60 | – | – | –
49 | O/N=C/Nc1ccc(/C=C/c2ccccc2)cc1 [Comp. 237] | 197.5 to 198 | – | 96.6 | 7.58 | – | – | –
50 | COc1cccc(COc2ccc(N/C=N/O)cc2)c1 [Comp. 390] | 152.5 to 153.5 | – | 112.8 | 8.57 | – | – | –
51 | CCc1cccc(N/C=N/O)c1 [Comp. 21] | 115.5 to 116.5 | 81.1 | – | – | – | – | –
